Columns and labels:
[1] = system: TNFα-induced, MAP3K1-mediated IKKβ phosphorylation; test: AlphaLISA phospho-IKKβ / total IKKβ assay in MiaPaCa2 cells; assay type: cell-based, Human; settings: 20, 10, 5 μM, 30 min pretreatment, 10 ng/mL TNFα
From the text: MAP3K1 was previously shown to phosphorylate IKKβ [12] and regulate NF-κB signaling. Therefore, we validated the ability of 51-106 to inhibit MAP3K1 by probing the phosphorylation status of the known substrate, IKKβ, using an AlphaLISA assay. The pancreatic cancer cells (MiaPaCa2) were subjected to a 30-min pretreatment with varying concentrations of 51-106, followed by TNFα stimulation to induce IKKβ phosphorylation. Following a 15-min stimulation, the levels of phospho-IKKβ and total IKKβ were quantified. […] (Figure 3A). Next, we evaluated the efficacy of 51-106 in a cell-based reporter assay utilizing a HeLa cell line that specifically responds to TNFα induced expression of a luciferase reporter gene that is under the control of an NF-κB response element.
A suspension of MiaPaCa2 cells (2 × 10^5/well) in 200 μL media was plated in a flat, clear-bottomed, sterile, 48-well tissue culture plate (Cat# 353230; Corning; Corning, NY, USA). The cells were allowed to attach to the plate for ~8 h in a humidified 5% CO2 incubator at 37 °C. […] Phospho-IKKβ levels were normalized to total […], and fold change was calculated compared to DMSO treatment. […] The statistical significance between groups was determined via unpaired t-tests coupled with post hoc analysis with Welch’s correction.

NPM1 phosphorylation = test: TMT phosphoproteomics of PANC-1 cells; assay type: cell-based; settings: 10 μM, 2 h, versus DMSO
Protocol: Next, we wanted to assess the effects of 51-106 on the early phosphorylation events associated with transient MAP3K1 inhibition. To this end, we conducted global proteomic and phosphoproteomic analyses of PANC-1 cells treated with varying doses of 51-106 (10, 5, 2.5, 1.25, 0.625, and 0 μM) for 2 h using a tandem mass tag (TMT)-based multiplexing strategy (Figure 4). Across all conditions, a total of 7028 proteins and 22,843 phosphosites were quantified and successfully mapped to known protein sequences. Significance cutoffs of >0.32 or <−0.32 log2FC of 51-106 compared to DMSO and FDR < 0.05 were used to analyze differences in total and phosphorylated protein levels between treatment and control samples using RokaiXplorer (Supplementary Figure S3a).
PANC-1 (1 × 10^7) cells were seeded into T125 flasks (FB012939, Fisher Scientific) and allowed to attach overnight in a humidified 5% CO2 incubator at 37 °C. Drug working solutions were prepared from 10 mM DMSO stocks. 51-106 was added in 4 dilutions, in triplicates. […]
Global proteome and phosphopeptide-enriched fractions were analyzed on an Orbitrap Eclipse mass spectrometer using UltiMate 3000 RSLC nano system for online separation of peptides in trap and elute configuration (Thermo Scientific, San Jose, CA, USA). […] Survey MS scans were recorded in Orbitrap mass analyzer with 375 to 1500 m/z scan range at 120,000 resolution. […]

Cn1cc(-c2cnc3ccc(NC(=O)Nc4ccc(F)c(C(F)(F)F)c4)cc3n2)cn1 [51-106, 1-(4-Fluoro-3-(trifluoromethyl)phenyl)-3-(3-(1-methyl-1H-pyrazol-4-yl)quinoxalin-6-yl)urea]
TNFα-induced, MAP3K1-mediated IKKβ phosphorylation (phospho-IKKβ / total IKKβ) [1]: inhibits TNFα-induced, MAP3K1-mediated IKKβ phosphorylation in a dose-dependent manner | decrease in NPM1 S227 phosphorylation (NPM1 phosphorylation): 3.5 fold

Source: PMC12073402, “A Selective MAP3K1 Inhibitor Facilitates Discovery of NPM1 as a Member of the Network” (Molecules, 2025)
